Entries after “also recorded” stand apart in the source; their conditions may differ. No end group written: not given here. *: point of attachment. KMUA = N-κ-maleimidoundecanoic acid-derived modifying group bound to a cysteine residue, O=C(O)CCCCCCCCCCN1C(=O)CC(*)C1=O; BMPA = N-β-maleimidopropionic acid-derived modifying group bound to a cysteine residue; Hexanoyl(6-maleimido) = O=C1C=CC(=O)N1CCCCCC(=O)*
Tested on: AHF (antigen recognized by the monoclonal antibody mAb27)
Test: Hair growth promoting activity in cultured mouse skin tissue: strength of the mAb27 reaction (AHF band) by Western blot
Type: cell-based, ICR baby mice
Conditions: test oligopeptide 20 μM, skin tissue cultured at 37° C. for 6 days, versus PBS control; FIGS. 4 and 5
Source text: The skin tissues of the upper jaw of ICR baby mice with an age of 12 days old were recovered under a stereoscopic microscope. The skin tissues were collected from both the left and right sides of the upper jaw, and the tissues were recovered from the total 5 mice. The skin sections recovered from the 5 mice were divided into the skin sections from the left side (used as a control) and those from the right side (used as a test oligopeptide). Thereafter, 5 skin sections were placed on a single nuclepore membrane (pore size: 8 μm; diameter: 13 mm). The skin sections were observed under a stereoscopic microscope, and the outside thereof was disposed on the front. 500 μl of Dulbecco's MEM/Ham F12 medium containing 1% BSA was added to 2 wells of a 24-well dish. Thereafter, a test oligopeptide solution (solvent: PBS) was added to one well to a final concentration of 20 μM, and only a solvent (PBS) as a control was added at the same amount to the other well. As test oligopeptides, unmodified oligopeptides and modified oligopeptides produced in (1) above were used.
Each of the membranes on which the skin tissues were placed was put on the aforementioned solution filled in the well, and it was then cultured at 37° C. for 6 days. From each membrane, 5 tissue sections were recovered in 100 μl of an SDS sample buffer (0.02 g/ml SDS, 0.2 g/ml glycerol, pH 6.8). The recovered sections were then dissolved therein using an ultrasonic crusher. The control was treated in the same manner. The solution obtained by the aforementioned treatment was electrophoresed (35 mA, 1.5 hours) by SDS-PAGE (acrylamide: 4% to 20%), and it was then transferred to a PVDF membrane. Thereafter, it was incubated in a Tris buffer solution (TBST) containing 5% skimmed milk for 1 hour. Thereafter, the resultant was allowed to react with mAb27 (10 μg/ml in TBST) obtained in Example 2 for 1 hour, and it was then sufficiently washed with TBS. Thereafter, peroxidase-labeled anti-rat IgG (Amersham) was 1,000 times diluted with TBST, and the diluted solution was used as a secondary antibody. The secondary antibody was allowed to react with the above resultant product, and the obtained reaction product was then sufficiently washed. Thereafter, the strength of the reaction of mAb27 was examined using an ECL kit (Amersham).
The term “AHF” shown in FIGS. 4 and 5 represents an antigen recognized by the monoclonal antibody mAb27 (specifically, a protein consisting of 1,439 amino acid residues shown in SEQ ID NO: 11).

Substance	hair growth activity (thickness of AHF band detected with mAb27)
Ser-Ile-Glu-Gln-Ser-Xaa-Glu-Gln-Glu (SIEQSC(Hexanoyl(6-maleimido))EQE) [SEQ ID NO: 10]	strong hair growth activity
Ser-Ile-Glu-Gln-Ser-Xaa-Asp [EMCA] (SIEQSC(Hexanoyl(6-maleimido))D)	strong hair growth activity; also recorded: particularly strong
Ser-Ile-Glu-Gln-Ser-Xaa-Asp-Gln-Asp-Glu (SIEQSC(Hexanoyl(6-maleimido))DQDE) [SEQ ID NO: 8]	particularly strong hair growth activity
Ser-Ile-Glu-Gln-Ser-Xaa-Asp [BMPA] (SIEQSC(BMPA)D)	strong hair growth activity
Ser-Ile-Glu-Gln-Ser-Xaa-Asp [KMUA] (SIEQSC(KMUA)D)	strong hair growth activity
Ser-Ile-Glu-Gln-Ser-Xaa-Ala-Gln-Glu (SIEQSC(Hexanoyl(6-maleimido))AQE) [SEQ ID NO: 9]	particularly strong hair growth activity

Reference: patent publication US7560428B2, “Hair growth promoting oligopeptides” (Sumitomo Electric Industries, Ltd., priority 2004, dated 2009)
